The values below come from patent publication US20250368648A1, “MULTI-CYCLIC IRAK AND FLT3 INHIBITING COMPOUNDS AND USES THEREOF” (CHILDREN'S HOSPITAL MEDICAL CENTER, priority 2022, published 2025).

What is called IC50 is the concentration needed to halve the response being measured. Read a high IC50 as lower potency.

The target of assay [1] is T1, IRAK1 (Homo sapiens, UniProt P51617).
T1 construct: purchased RBC (Reaction Biology) HotSpot assay
Kind of assay: RBC HotSpot Kinase Assay, IRAK1. In kind it is biochemical. The note with it: HotSpot functional assay, isolated kinase enzyme, 33P-ATP. In outline: (§1)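 Isolated kinases, possibly truncated or lacking regulatory receptor regions, were preincubated with compound for 20 min at room temp in 20 mM Hepes pH 7.5, 10 mM MgCl2, 1 mM EGTA, 2 mM DTT, 1% DMSO. Reactions were started with ^33P-ATP and run 2 h at room temperature; activity was read by P81 filter binding.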

In assay [2] the test system is MOLM14 D835Y cells. Nature of the assay: MOLM14 D835Y cell viability assay (Cell Titer Glo). In kind it is cell-based. How it is done:
The cell line has activated FLT3 receptors which carry additional resistance mutations in the kinase domain (D835Y).
MOLM14 D835Y cells were grown in RPMI-1640 media supplemented with 20% fetal bovine serum (FBS). […] After cell addition, 23 nL of test compound were transferred into individual wells (22 doses tested for each test compound, with a 1:2 dilution series starting at 10 μM) via a 1536 pin-tool. Bortezomib (final concentration 2.3 μM) was used as a positive control for cell cytotoxicity.
(ATP-based viability assays read luminescence as a measure of living cells.)

Assay [3] has as its target T2, IRAK4 (Homo sapiens, UniProt Q9NWZ3).
T2 sequence (Q9NWZ3 1-460): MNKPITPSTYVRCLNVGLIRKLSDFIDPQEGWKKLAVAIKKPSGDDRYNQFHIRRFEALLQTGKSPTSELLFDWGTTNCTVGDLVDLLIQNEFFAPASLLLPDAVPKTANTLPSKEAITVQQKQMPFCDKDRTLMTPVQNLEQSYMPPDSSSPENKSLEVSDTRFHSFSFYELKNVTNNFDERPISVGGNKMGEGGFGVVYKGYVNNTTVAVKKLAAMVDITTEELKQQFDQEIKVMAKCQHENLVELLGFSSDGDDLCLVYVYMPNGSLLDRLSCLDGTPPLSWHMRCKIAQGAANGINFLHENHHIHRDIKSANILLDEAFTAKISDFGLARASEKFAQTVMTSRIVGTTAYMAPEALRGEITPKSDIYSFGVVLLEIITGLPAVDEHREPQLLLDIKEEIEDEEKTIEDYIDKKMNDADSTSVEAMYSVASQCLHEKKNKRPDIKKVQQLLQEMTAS
Kind of assay: RBC HotSpot Kinase Assay, IRAK4. In kind it is biochemical. More on the design: purchased RBC (Reaction Biology) HotSpot assay. The following applies: HotSpot functional assay, isolated kinase enzyme, 33P-ATP. The gist of the method: as §1

Assay [4] has as its target T3, FLT3 (Homo sapiens, UniProt P36888).
T3 sequence (P36888 27-993): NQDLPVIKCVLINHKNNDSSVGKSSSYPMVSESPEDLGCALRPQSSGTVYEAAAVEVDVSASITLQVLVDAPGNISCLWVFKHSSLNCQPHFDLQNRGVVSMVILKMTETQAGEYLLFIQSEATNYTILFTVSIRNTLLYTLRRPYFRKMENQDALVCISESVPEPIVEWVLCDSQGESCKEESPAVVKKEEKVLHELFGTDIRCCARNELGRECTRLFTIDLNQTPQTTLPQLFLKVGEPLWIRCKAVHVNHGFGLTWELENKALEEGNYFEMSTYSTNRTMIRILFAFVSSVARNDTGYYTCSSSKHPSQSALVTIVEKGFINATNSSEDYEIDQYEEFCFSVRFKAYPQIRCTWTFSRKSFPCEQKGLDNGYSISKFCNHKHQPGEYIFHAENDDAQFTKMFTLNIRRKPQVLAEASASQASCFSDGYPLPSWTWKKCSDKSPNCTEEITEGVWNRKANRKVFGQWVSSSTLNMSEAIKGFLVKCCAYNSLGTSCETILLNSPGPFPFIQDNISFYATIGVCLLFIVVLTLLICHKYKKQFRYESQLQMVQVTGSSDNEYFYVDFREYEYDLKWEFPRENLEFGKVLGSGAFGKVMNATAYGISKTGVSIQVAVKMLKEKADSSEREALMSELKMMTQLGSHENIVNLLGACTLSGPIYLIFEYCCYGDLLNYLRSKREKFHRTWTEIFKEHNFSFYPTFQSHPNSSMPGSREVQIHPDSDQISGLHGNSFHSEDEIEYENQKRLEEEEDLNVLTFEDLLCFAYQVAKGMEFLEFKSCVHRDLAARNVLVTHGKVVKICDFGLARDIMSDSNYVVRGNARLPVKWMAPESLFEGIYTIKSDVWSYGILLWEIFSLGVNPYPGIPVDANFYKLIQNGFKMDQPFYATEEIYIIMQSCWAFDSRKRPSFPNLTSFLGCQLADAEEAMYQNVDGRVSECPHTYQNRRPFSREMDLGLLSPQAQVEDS
Kind of assay: RBC HotSpot Kinase Assay, FLT3. The following applies: HotSpot functional assay, isolated kinase enzyme, 33P-ATP. Also on record: purchased RBC (Reaction Biology) HotSpot assay. In kind it is biochemical. In outline:
as §1

T1 sequence (P51617 whole entry): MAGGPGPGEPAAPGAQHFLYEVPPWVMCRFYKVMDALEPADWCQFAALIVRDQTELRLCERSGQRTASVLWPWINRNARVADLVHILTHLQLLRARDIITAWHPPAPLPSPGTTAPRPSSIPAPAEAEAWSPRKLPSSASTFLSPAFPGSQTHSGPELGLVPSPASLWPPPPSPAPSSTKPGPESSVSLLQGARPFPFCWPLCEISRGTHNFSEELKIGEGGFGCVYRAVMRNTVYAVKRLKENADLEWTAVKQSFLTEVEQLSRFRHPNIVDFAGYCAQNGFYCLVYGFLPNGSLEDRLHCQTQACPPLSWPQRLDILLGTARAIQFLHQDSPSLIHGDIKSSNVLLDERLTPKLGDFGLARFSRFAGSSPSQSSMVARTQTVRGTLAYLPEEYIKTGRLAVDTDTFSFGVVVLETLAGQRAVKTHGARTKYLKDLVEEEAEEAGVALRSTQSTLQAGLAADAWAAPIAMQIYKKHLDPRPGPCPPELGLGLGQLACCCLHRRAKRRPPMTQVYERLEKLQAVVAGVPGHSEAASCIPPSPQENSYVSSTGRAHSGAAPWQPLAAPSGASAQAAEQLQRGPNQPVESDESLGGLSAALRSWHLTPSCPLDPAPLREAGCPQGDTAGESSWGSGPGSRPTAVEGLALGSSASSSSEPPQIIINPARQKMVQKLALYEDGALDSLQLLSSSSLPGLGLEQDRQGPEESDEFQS

Turning to `COc1cc2ncc(-c3nc(N[C@@H]4CCCNC4)c(F)cc3F)n2nc1C(C)(O)C(F)(F)F` (single isomer, unassigned) [Compound 79a], the IC50 in assay [1] was 822 nM; in assay [2] (48 hours) it was 81 nM; in assay [3] it was 521 nM; in assay [4], under 0.5 nM.
With `COc1cc2ncc(-c3ccc(F)c(N[C@H]4CNC[C@@H]4F)n3)n2nc1C(C)(C)O` [Compound 5a, 2-(3-(5-fluoro-6-(((3S,4S)-4-fluoropyrrolidin-3-yl)amino)pyridin-2-yl)-7-methoxyimidazo[1,2-b]pyridazin-6-yl)propan-2-ol], the IC50 turned out to be 2670 nM in assay [1]; 408 nM in assay [2] (Homo sapiens, MOLM-14, 48 h); 70 nM in assay [3]; 7 nM in assay [4].
In the same order, the values of `COc1cc2ncc(-c3ccc(C)c(N[C@@H]4CCCNC4)n3)n2nc1C1CC1` [Compound 41a, (R)-6-(6-cyclopropyl-7-methoxyimidazo[1,2-b]pyridazin-3-yl)-3-methyl-N-(piperidin-3-yl)pyridin-2-amine] are over 10000 nM, 1620 nM, over 10000 nM and 105 nM.
In the same order, the values of `COc1cc2ncc(-c3ccc(F)c(N[C@H]4CNCC[C@@H]4F)n3)n2nc1C1CC1` [Compound 48a, 6-(6-cyclopropyl-7-methoxyimidazo[1,2-b]pyridazin-3-yl)-3-fluoro-N-((3S,4S)-4-fluoropiperidin-3-yl)pyridin-2-amine] are 169 nM, 26 nM, 1 nM and under 0.5 nM.
Regarding `COc1cc2ncc(-c3nc(N[C@H]4CNC[C@@H]4F)c(F)cc3F)n2nc1C1CCC1` [Compound 13a, 6-(6-cyclobutyl-7-methoxyimidazo[1,2-b]pyridazin-3-yl)-3,5-difluoro-N-((3S,4S)-4-fluoropyrrolidin-3-yl)pyridin-2-amine], the IC50 is 6 nM in assay [1]; 58 nM in assay [2] (Homo sapiens, MOLM-14, 48 h); 1 nM in assay [3]; under 0.5 nM in assay [4].
In the same order, the values of `COc1cc2ncc(-c3ccc(F)c(N[C@@H]4CCCNC4)n3)n2nc1C(C)(C)O` [Compound 6a, (R)-2-(3-(5-fluoro-6-(piperidin-3-ylamino)pyridin-2-yl)-7-methoxyimidazo[1,2-b]pyridazin-6-yl)propan-2-ol] are 2850 nM, 289 nM, 558 nM and 9 nM.
For the molecule `COc1cc2ncc(-c3nc(N[C@H]4CNC[C@@H]4F)c(F)cc3F)n2nc1C(C)(O)C(F)(F)F` (single isomer, unassigned) [Compound 78a], the IC50 in assay [1] was 983 nM; in assay [2] (48 hours), 229 nM; in assay [3], 92 nM; in assay [4] it was 1 nM.
On to `Fc1cc(F)c(-c2cnc3cc(OCC(F)F)cnn23)nc1N[C@@H]1CCCNC1` [Compound 83a, (R)-6-(7-(2,2-difluoroethoxy)imidazo[1,2-b]pyridazin-3-yl)-3,5-difluoro-N-(piperidin-3-yl)pyridin-2-amine], for which the concentration for half-maximal inhibition (IC50) in assay [1] was found to be 1750 nM; in assay [2] (Homo sapiens, MOLM-14, 48 h) it was 91 nM; in assay [3], 53 nM; in assay [4] it was 0.5 nM.
Regarding `Fc1cc(F)c(-c2cnc3cc(OCC(F)F)cnn23)nc1N[C@H]1CNCC[C@@H]1F` [Compound 84a, 6-(7-(2,2-difluoroethoxy)imidazo[1,2-b]pyridazin-3-yl)-3,5-difluoro-N-((3S,4S)-4-fluoropiperidin-3-yl)pyridin-2-amine], the IC50 in assay [1] is 849 nM; in assay [2] (Homo sapiens, MOLM-14, 48 h), 46 nM; in assay [3] it was 4 nM; in assay [4], under 0.5 nM.
In the same order, the values of `COc1cc2ncc(-c3ccc(C)c(N[C@H]4CNCC[C@@H]4F)n3)n2nc1C1CC1` [Compound 38a, 6-(6-cyclopropyl-7-methoxyimidazo[1,2-b]pyridazin-3-yl)-N-((3S,4S)-4-fluoropiperidin-3-yl)-3-methylpyridin-2-amine] are over 10000 nM, 2890 nM, 7080 nM and 50 nM.
Regarding `COc1cc2ncc(-c3nc(N[C@@H]4CCCNC4)ccc3C#N)n2nc1C1CC1` [Compound 30a, (R)-2-(6-cyclopropyl-7-methoxyimidazo[1,2-b]pyridazin-3-yl)-6-(piperidin-3-ylamino)nicotinonitrile], the IC50 was 2290 nM in assay [1], 110 nM in assay [3] and 48 nM in assay [4].
In the same order, the values of `COc1cc2ncc(-c3nc(N[C@@H]4CCCNC4)c(F)cc3F)n2nc1N1CCCC1=O` [Compound 23a, (R)-1-(3-(3,5-difluoro-6-(piperidin-3-ylamino)pyridin-2-yl)-7-methoxyimidazo[1,2-b]pyridazin-6-yl)pyrrolidin-2-one] are 348 nM, 48 nM and 2 nM.
In the same order, the values of `COc1cc2ncc(-c3nc(N[C@H]4CNCC[C@@H]4F)c(F)cc3F)n2nc1C1CCCC1` [Compound 18a, 6-(6-cyclopentyl-7-methoxyimidazo[1,2-b]pyridazin-3-yl)-3,5-difluoro-N-((3S,4S)-4-fluoropiperidin-3-yl)pyridin-2-amine] are 3 nM, 0.6 nM and under 0.5 nM.
As to `COc1ccc(-c2cnc3cc(OC)c(C4CC4)nn23)nc1N[C@H]1CNCC[C@@H]1F` [Compound 35a, 6-(6-cyclopropyl-7-methoxyimidazo[1,2-b]pyridazin-3-yl)-N-((3S,4S)-4-fluoropiperidin-3-yl)-3-methoxypyridin-2-amine], the IC50 in assay [1] was over 10000 nM; in assay [3] it was 55 nM; in assay [4], under 0.5 nM.
With `COc1cc2ncc(-c3nc(N[C@H]4CNCC[C@@H]4F)c(C)cc3C)n2nc1C1CC1` [Compound 64a, 6-(6-cyclopropyl-7-methoxyimidazo[1,2-b]pyridazin-3-yl)-N-((3S,4S)-4-fluoropiperidin-3-yl)-3,5-dimethylpyridin-2-amine], the IC50 in assay [1] is over 10000 nM; in assay [3], over 10000 nM; in assay [4], 821 nM.
As to `COc1ccc(-c2cnc3cc(OC)c(C4CC4)nn23)nc1N[C@H]1CNC[C@@H]1F` [Compound 33a, 6-(6-cyclopropyl-7-methoxyimidazo[1,2-b]pyridazin-3-yl)-N-((3S,4S)-4-fluoropyrrolidin-3-yl)-3-methoxypyridin-2-amine], the IC50 is over 10000 nM in assay [1], 47 nM in assay [3] and under 0.5 nM in assay [4].
In the same order, the values of `COc1cc2ncc(-c3nc(N[C@@H]4CCCNC4)c(F)cc3F)n2nc1C1CCCC1` [Compound 17a, (R)-6-(6-cyclopentyl-7-methoxyimidazo[1,2-b]pyridazin-3-yl)-3,5-difluoro-N-(piperidin-3-yl)pyridin-2-amine] are 7 nM, 2 nM and under 0.5 nM.
